Source: patent publication US10138292B2, “Cell culture medium” (BIOLAMINA AB, priority 2010, dated 2018)

Assays:
human ES cells = assay: Cell adhesion / single cell survival 1 day after plating (Example 1); format: cell-based; details: for adhesion at 1 day compared with dishes including the ROCK inhibitor: coating without additives
Protocol: Ninety-six-well tissue cell culture plates were coated overnight at 4° C. with sterile solutions of the ECM proteins mouse LN-111 (Invitrogen), human recombinant LN-511, and human recombinant LN-521, all at a concentration of 30 μg/ml (5 μg/cm^2). For control cells, BD Matrigel™ hESC qualified (BD Biosciences) was used according to the manufacturer's instructions.
The assay was performed as described (Extracellular Matrix Protocols, 2000). Briefly, 96-well plates were coated by extracellular matrix proteins as described above and blocked by O3 medium containing bovine serum albumin. The ES cells were plated at a cell density of 600 cell/mm^2 upon extracellular matrix-coated plates and were left to adhere for either 1 hour or 1 day at the cell incubator. Non-adherent cells were washed away, and adherent cells were fixed for 20 min by 5% glutaraldehyde, stained by 0.1% Crystal Violet.

[1] = system: human embryonic stem cells; assay: Survival of dissociated human embryonic stem cells one day after plating on precoated dishes; format: cell-based; details: single cell suspension, O3 medium, 30 Kcells/cm^2
From the text: In other aspects, the present disclosure provides a new material, isolated laminin-521, which permits human embryonic stem cell survival after dissociation into single cell suspension. The stem cells were dissociated into single cell suspension by Trypsin-EDTA treatment, pelleted by centrifugation, resuspended into O3 medium, filtered through a 40 μm sieve, and plated at a density of 30 Kcells/cm^2 on cell culture dishes precoated by either isolated laminin-521, laminin-511, or Matrigel. After one day in culture, the cells plated on Matrigel died, as is known in the art.

OCT4 = assay: FACS analysis for OCT4; format: cell-based, human; details: after several single cell suspension passages, O3 medium
Protocol: OCT4 expression was analyzed as described in Ludwig, T. E. et al. Derivation of human embryonic stem cells in defined conditions. Nat. Biotechnol. 24, 185-187 (2006). Cells were run on FACSCalibur Flow Cytometer (Becton Dickinson). Data were analyzed with CellQuest software (Becton Dickinson).

hES cells [2] = assay: Cell adhesion assay, 1 hour (Example 2); format: cell-based, human; details: not shown
Protocol: Tissue cell culture plates were coated overnight at 4° C. with sterile solutions of the ECM proteins, such as human recombinant LN-521, all at a concentration of 30 μg/ml (5 μg/cm^2). Control plates were coated with Matrigel according to the STEMCELL Technologies' instructions. Prior to use, dishes were pre-warmed in an incubator for one hour after which prewarmed O3 medium was added without additional washing of the dish. After applying a fresh LN-521 solution to a new dish, the remaining LN-521 solution could be used at least once more. All the adhesion, survival, and inhibition of survival experiments were carried out using fresh coating materials.
Briefly, 96-well plates were coated by extracellular matrix proteins as described above and blocked by O3 medium containing bovine serum albumin. The ES cells were plated at cell density of 50,000 cells/cm^2 onto extracellular matrix-coated plates and left to adhere for 1 hour in a cell incubator. After that the plates were washed 3 times with the medium to remove the non-adherent cells, and then the adherent cells were fixed for 20 minutes by 5% glutaraldehyde, stained by 0.1% Crystal Violet. (Kebo Lab, Spanga, Sweden, http://www.kebolab.se). After one hour and 3 washes with water, Crystal Violet was extracted with 10% acetic acid and quantified by measuring optical density at 570 nm. All the experiments were performed in quadruplicate.

hES cells [3] = assay: Cell survival assay, 24 hours (Example 2); format: cell-based, human
Protocol: The survival assay was performed as described for the cell adhesion assay above, except that the cells were left in the cell incubator for 24 hours. For inhibition of survival assay, the cells were kept in a medium with function blocking antibodies at the concentrations recommended by the manufacturer or pathway inhibitors at concentrations indicated in the text for 30 minutes, and then plated on the coated dishes. All the experiments were performed in quadruplicate.
Pluripotent hES cells express α1, α5, β1, β2 and γ1 laminin chains. To compare the adhesion and clonal survival of hES cells plated from single cell suspension to different coating substrata, hES cells growing as monolayers on LN-511 or as clusters on a feeder layer were trypsinized into single cell suspension in O3 medium and plated on cell culture dishes coated with Matrigel, LN-111, LN-511, LN-521 or a mixture of LN-511 and LN-521, in the absence or presence of a ROCK inhibitor (Y-27632) and analyzed after 24 hours.

hES cells [4] = assay: In vivo imaging and migration assay; format: cell-based, human
Protocol: 24-well plates were coated by extracellular matrix proteins and blocked by O3 medium containing bovine serum albumin. The ES cells were plated at cell density of 30,000-40,000 cells/cm^2 onto extracellular matrix-coated plates and left to adhere for half an hour in a cell incubator. After that, the plate was transferred into high content imaging system Operetta (PerkinElmer) equipped with environmental control unit, which allowed to keep 37° C., 5% CO2. For two movies that were made, the brightfield images were taken once in 15 minutes during 24 hours after plating using Harmony software (PerkinElmer), exported, and analyzed using ImageJ software (NIH, the US). For migration assay the images were taken every seven minutes during 18 hours after plating. Images acquired between the fifth and seventh hours after plating were analyzed using MTrackJ plug-in (University Medical Center, Rotterdam, The Netherlands). 100 attached cells on each coating were traced and mean distances from the current to the previous point of the track were calculated. Error bars show standard error of the mean s.e.m. (n=100).

hES cells [5] = assay: Clonal survival of individualized hES cells (Example 4); format: cell-based, human; details: mTeSR1 medium, 250 cells per cm^2, 5 days, alkaline phosphatase staining
Protocol: hES cells were plated in mTeSR1 medium on different coatings at a density of 250 cells per cm^2 and monitored after 5 days in culture using an alkaline phosphatase staining kit.
Next, combinations of laminin-521 and E-Cadherin were tested to determine whether the combinations could sustain clonal survival of the cells. Fixed amounts of laminin-521 were used for the cell culture dish coating in combination with titrated E-Cadherin.
Additional tests were performed to test the effects of various modifications to the mTeSR1 medium. A mixture of E-Cadherin to laminin-521 in a ratio of about 1:10 w/w was used to coat the plates. […] Time-lapse photography of the cells confirmed that laminin-521/E-Cadherin coatings facilitated cell survival through proliferation of the single cells, not through the aggregation of different cells.

Question: With “LN-521: protein formed by joining α5, β2 and γ1 laminin chains; human recombinant, produced in HEK293 cells” as the substance, how does the “adhesion at 1 day compared with dishes including the ROCK inhibitor” value (human ES cells) read?
Answer: Its value is “similar”.

Question: What about the “adhesion at 1 day compared with dishes including the ROCK inhibitor” value (human ES cells; listed as LN-532) of the same substance?
Answer: Its value is “no ROCK inhibitor is necessary”.

Question: And the “cells remaining attached / surviving 24 hours after plating” value (human ES cells; completely dissociated H5181 cells, O3 medium without any additives, no ROCK inhibitor)?
Answer: Its value is “survived”.

Question: What about the “adhesion at 1 day relative to Matrigel without additives” value (human ES cells; without additives) of the same substance?
Answer: Its value is 20 times.

Question: What about the “survival after one day in culture” value [1] of the same substance?
Answer: The value was “survived”.

Question: And the “percentage of Oct4 positive (pluripotent) cells compared with Matrigel” value (OCT4)?
Answer: The value was “much higher percentage”.

Question: What about the “spreading of the cells after one hour compared with Matrigel or LN-111” value (hES cells [2]) of the same substance?
Answer: Its value is “clearly better”.

Question: And the “survival of Y-27632 treated cells compared with Matrigel” value (hES cells [3]; 10 μM of Y-27632, 40,000 cells per 1 cm^2)?
Answer: Its value is “survived better”.

Question: What about the “survival compared with LN-511” value (hES cells [3]; 24 hours, absence of ROCK inhibitor) of the same substance?
Answer: Its value is “significantly higher”.

Question: And the “survival after 24 hours relative to Matrigel” value (hES cells [3]; dissociated hES cells)?
Answer: Its value is “approximately 20 times”.

Question: What about the “survival relative to Matrigel” value (hES cells [3]; exogenous bFGF removed from the O3 medium) of the same substance?
Answer: The value was 20 times.

Question: And the “survival 24 hours after plating” value (hES cells [3]; medium lacking bFGF, LiCl, GABA, pipecolic acid and TGFβ)?
Answer: Its value is “survived”.

Question: What about the “survival 24 hours after plating” value (hES cells [3]; single cell suspension, O3 medium, absence of ROCK inhibitor) of the same substance?
Answer: Its value is “did so as single cells”.

Question: What about the “motility of hES cells compared with other coatings” value (hES cells [4]; between the fifth and seventh hours after plating) of the same substance?
Answer: The value was “higher”.

Question: What about the “migration of cells compared with Matrigel (imaging)” value (hES cells [4]; in vivo imaging) of the same substance?
Answer: The value was “much faster”.

Question: And the “clonal survival of individualized hES cells” value (hES cells [5])?
Answer: The value was “Neither laminin-521 nor E-Cadherin alone permitted efficient clonal survival”.
